The nature of data set [1]: Cytotoxicity against hTERT cells at 10 uM measured after 24 to 48 hrs by Cell-titer glo assay relative to control. In kind it is cell-based. As to conditions: human, time 24-48 hrs.
Data set [2] concerns the target T1, NAD-dependent protein deacetylase sirtuin-7 (Homo sapiens) (UniProt Q9NRC8).
T1 sequence (whole entry): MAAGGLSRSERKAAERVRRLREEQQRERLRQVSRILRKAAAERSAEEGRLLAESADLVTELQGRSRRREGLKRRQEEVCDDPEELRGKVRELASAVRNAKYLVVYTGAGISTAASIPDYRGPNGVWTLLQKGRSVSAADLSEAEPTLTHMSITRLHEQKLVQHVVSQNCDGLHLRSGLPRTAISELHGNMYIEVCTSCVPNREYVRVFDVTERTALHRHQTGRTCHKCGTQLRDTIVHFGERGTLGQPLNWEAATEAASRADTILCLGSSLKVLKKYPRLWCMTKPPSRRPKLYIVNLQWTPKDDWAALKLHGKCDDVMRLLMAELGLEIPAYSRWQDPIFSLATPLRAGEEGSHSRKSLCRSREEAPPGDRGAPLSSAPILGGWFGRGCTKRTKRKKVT
As to the kind of experiment: Inhibition of human recombinant SIRT7 at 10 uM incubated for 20 mins followed by mixing and measure after 30 mins by Luminescence assay relative to control. The following applies: time 50.0 min.

Data set [3] addresses {'v': 'CYP2D6', 'o': 'p', 'q': 'Inhibition of CYP2D6 (unknown origin)'} (Homo sapiens, UniProt P10635). As to the kind of experiment: Inhibition of CYP2D6 (unknown origin) at 10 uM pre-incubated for 30 min followed by addition of NADPH and measured after 30 min by Luminescence based plate reader method relative to control. The following applies: time 60 min. It counts as ADME.

Data set [4] concerns the target Histone deacetylase 4 (Homo sapiens) (UniProt P56524). The experiment in a line: Inhibition on human recombinant HDAC4 at 10 uM measured after 20 min by luminescence glo assay.
Data set [5] addresses Histone deacetylase 9 (Homo sapiens) (UniProt Q9UKV0). The experiment in a line: Inhibition on human recombinant HDAC9 at 10 uM measured after 20 min by luminescence glo assay.
Another data set concerns MCF7. As to the kind of experiment: Cytotoxicity against human MCF7 cells measured after 72 hrs by MTT assay. It counts as functional, cell-based. As to conditions: MCF7, 72 h.
A further data set concerns CAKI-1. As to the kind of experiment: Cytotoxicity against human CAKI-1 cells measured after 72 hrs by MTT assay. It counts as functional, cell-based. The following applies: CAKI-1, 72 h.
Another data set concerns 786-0. As to the kind of experiment: Cytotoxicity against human 786-0 cells measured after 72 hrs by MTT assay. It counts as functional, cell-based. The following applies: 786-0, 72 h.
The next data set relates to IGROV-1. As to the kind of experiment: Cytotoxicity against human IGROV-1 cells measured after 72 hrs by MTT assay. As to conditions: IGROV-1, 72 h. It counts as functional, cell-based.
A further data set deals with PC-3. As to the kind of experiment: Cytotoxicity against human PC-3 cells measured after 72 hrs by MTT assay. It counts as functional, cell-based. The following applies: PC-3, 72 h.
Data set [6] concerns HCT-116. The experiment in a line: Cytotoxicity against human HCT-116 cells measured after 72 hrs by MTT assay. It counts as functional, cell-based. The following applies: HCT-116, 72 h.
For a further data set, the system named is NCI-H69. The experiment in a line: Cytotoxicity against human NCI-H69 cells measured after 72 hrs by MTT assay. It counts as functional, cell-based. As to conditions: NCI-H69, 72 h.
The next data set relates to NCI-H82. The experiment in a line: Cytotoxicity against human NCI-H82 cells measured after 72 hrs by MTT assay. It counts as functional, cell-based. As to conditions: NCI-H82, 72 h.
The next data set has as its system TC-32. As to the kind of experiment: Cytotoxicity against human TC-32 cells measured after 72 hrs by MTT assay. In kind it is functional, cell-based. The following applies: TC-32, 72 h.
Data set [7] deals with SK-N-MC. The experiment in a line: Cytotoxicity against human SK-N-MC cells measured after 72 hrs by MTT assay. It counts as functional, cell-based.
The nature of data set [8]: Cytotoxicity against human 6647 cells measured after 72 hrs by MTT assay. The following applies: Homo sapiens, 6647, 72 h. It counts as functional, cell-based.
Data set [9] in a line: Cytotoxicity against human TC71 cells measured after 72 hrs by MTT assay. In kind it is functional, cell-based. As to conditions: TC-71, 72 h.
For data set [10], the system named is HCT-116. As to the kind of experiment: Cytotoxicity against human HCT-116 cells at 30 uM assessed as cell proliferation rate measured after 72 hrs by MTT assay relative to control. It counts as functional.
The next data set concerns A673. The experiment in a line: Cytotoxicity against human A673 cells measured after 72 hrs by MTT assay. It counts as functional, cell-based. The following applies: A673, 72 h.
The next data set deals with Rec1. As to the kind of experiment: Cytotoxicity against human REC1 cells at 30 uM assessed as cell proliferation rate measured after 72 hrs by MTT assay relative to control. It counts as functional.
The test system of data set [11] is SK-N-MC. The experiment in a line: Cytotoxicity against human SK-N-MC cells at 30 uM assessed as cell proliferation rate measured after 72 hrs by MTT assay relative to control. In kind it is functional.
Data set [12] can be described thus: Cytotoxicity against human TC71 cells at 30 uM assessed as cell proliferation rate measured after 72 hrs by MTT assay relative to control. In kind it is functional. The following applies: TC-71.
The subject of data set [13] is HCT-116. As to the kind of experiment: Anticlonogenic activity against human HCT-116 cells assessed as reduction of cell survival at 0.5 to 20 uM measured after 10 days by SRB staining clonogenic survival assay. As to conditions: dose 0.5-20 µM, time 10.0 day. In kind it is functional, cell-based.
Another data set concerns TC-71. The experiment in a line: Anticlonogenic activity against human TC71 cells assessed as reduction of cell survival at 0.5 to 20 uM measured after 10 days by SRB staining clonogenic survival assay. In kind it is functional, cell-based. The following applies: dose 0.5-20 µM, time 10.0 day.
A short description of data set [14]: AUC in CD-1 mouse at 10 mg/kg iv measured by UPLC-MS/MS method. It counts as ADME, organism-based. More on the design: dose 10 mg/kg. As to conditions: in vivo.
Data set [15] is described as follows: AUC (infinity) in CD-1 mouse at 10 mg/kg iv measured by UPLC-MS/MS method. The following applies: in vivo. In kind it is ADME, organism-based. More on the design: time infinity, route intravenous, dose 10 mg/kg.
Data set [16] is described as follows: Clearance in CD-1 mouse at 10 mg/kg iv measured by UPLC-MS/MS method. In kind it is ADME, organism-based. As to conditions: in vivo.
Data set [17] in a line: Half life in CD-1 mouse at 10 mg/kg iv measured by UPLC-MS/MS method. It counts as ADME, organism-based. As to conditions: in vivo.
Data set [18] can be described thus: Volume of distribution in CD-1 mouse at 10 mg/kg iv measured by UPLC-MS/MS method. In kind it is ADME, organism-based. The following applies: in vivo.
A short description of data set [19]: Drug uptake in human […] cell at 1.5 uM measured upto 120 min by UPLC-MS/MS analysis. It counts as ADME, tissue-based. The following applies: 2 h.
For data set [20], the target named is Aurora kinase A (Homo sapiens) (UniProt O14965). As to the kind of experiment: Modulation in AURA protein in human SK-N-MC cell at 1 uM measured after 30 min by Western blot analysis. In kind it is tissue-based.
Data set [21] has as its system SK-N-MC. As to the kind of experiment: Inhibition of human Akt in human SK-N-MC cell assessed as inhibition of Akt phosphorylation at 1 uM measured after 30 min by Western blot analysis. It counts as tissue-based.
The target in data set [22] is Ribosomal protein S6 kinase alpha-3 (Homo sapiens) (UniProt P51812). As to the kind of experiment: Inhibition of human RSK2 in human SK-N-MC cell assessed as inhibition of RSK2 phosphorylation at 1 uM measured after 30 min by Western blot analysis. In kind it is tissue-based.
For data set [23], the system named is SK-N-MC. As to the kind of experiment: Inhibition of MAPK signaling in human SK-N-MC cell assessed as decrease in phosphorylated ERK 1/2 at 1 uM measured after 30 min by Western blot analysis. In kind it is tissue-based.
Data set [24] concerns SK-N-MC. As to the kind of experiment: Upregulation of p21 protein expression level in human SK-N-MC cell at 1 uM incubated for 2 hrs by western blot analysis. It counts as functional, tissue-based.
Data set [25] concerns SK-N-MC. The experiment in a line: Upregulation of Cdc2 protein expression level in human SK-N-MC cell at 1 uM incubated for 2 hrs by western blot analysis. In kind it is functional, tissue-based.
The target in data set [26] is 3-phosphoinositide-dependent protein kinase 1 (Homo sapiens) (UniProt O15530). The experiment in a line: Modulation in PDK-1 phosphorylation in human SK-N-MC cell at 1 uM measured after 30 min by Western blot analysis.

The source made the active and inactive calls. The rule behind the calls is not given here. A value given as a limit tells only on which side of the number the result lay.

With `Cc1ccc(C(=O)NCC(=O)Nc2ccc3c(c2)/C(=C/c2cnc[nH]2)C(=O)N3)c(=O)n1Cc1ccc(F)c(F)c1`, the Activity in data set [1] is listed as less than 25%. In addition, the inhibition in data set [2], in data set [4] and in data set [5] was less than 30% in each case. In data set [3], this molecule gave an inhibition at 0.5 h, 10 µM greater than 90%.
Take `O=C(CCNC(=O)c1cccn(Cc2ccc(F)c(F)c2)c1=O)Nc1ccc2c(c1)/C(=C/c1cnc[nH]1)C(=O)N2`: in data set [1], the Activity is less than 25%. The inhibition in data set [2], in data set [4] and in data set [5] was less than 30% each time. In data set [3], this molecule yielded an inhibition at 0.5 h, 10 µM greater than 90%.
`Cc1c(Br)cc(C(=O)N[C@@H](C(=O)Nc2ccc3c(c2)/C(=C/c2cnc[nH]2)C(=O)N3)c2ccccc2)c(=O)n1Cc1ccc(F)c(F)c1` returned an Activity in [1] of less than 25%. Further, the inhibition in [2], in [4] and in data set [5] was less than 30% throughout. The molecule further had an inhibition at 0.5 h, 10 µM in [3] of less than 45%. Besides, the IC50 in the data set on MCF7, in the data set on CAKI-1, with 786-0, with IGROV-1, in the data set with PC-3 and in the data set on HCT-116 [6] was greater than 30 µM each time. The IC50 (in the data set with NCI-H69; in the data set with NCI-H82; in the data set with TC-32; in the data set on SK-N-MC [7]; in [8]; in [9]) was greater than 30 µM in each case.
For the molecule `O=C1Nc2ccc(NC(=O)[C@H](NC(=O)c3cccn(Cc4ccc(F)c(F)c4)c3=O)c3ccccc3)cc2/C1=C/c1cnc[nH]1` (stereo in doubt), the results for the Activity (in data set [1]; in the data set on HCT-116 [13]; with TC-71) were less than 25%, “Dose-Dependent Effect” and “Dose-Dependent Effect”, respectively. The Emax at 30 µM came to 60% in the data set with HCT-116 [10], 55% in the data set with Rec1, 75% in the data set on SK-N-MC [11] and 60% in data set [12]. The inhibition in [2], in data set [4] and in [5] was less than 30% in each case. The IC50 with MCF7 is greater than 30 µM; with CAKI-1, greater than 30 µM; in the data set with 786-0, greater than 30 µM; in the data set on IGROV-1, greater than 30 µM; in the data set on PC-3, greater than 30 µM; in the data set on HCT-116 [6], 3.6 µM. The concentration for half-maximal inhibition (IC50) is greater than 30 µM with NCI-H69; greater than 30 µM with NCI-H82; greater than 30 µM in the data set on TC-32; 3 µM with SK-N-MC [7]; 4.8 µM in data set [8]; 16.9 µM in [9]. In the data set on A673, the IC50 is greater than 30 µM. In addition, the AUC in [14] was found to be 4220 ng·h/mL; in data set [15], 5720 ng·h/mL. Further, in [16], the CL came out at 75 mL/h. Also, the t1/2 in data set [17] came out at 1.5 h. This molecule gave a Vd in data set [18] of 0.37 L. The molecule further gave a Drug uptake in [19] of 800 ng/mL. For the same molecule, the outcome in data set [20] and in [26] was inactive. For the same molecule, the inhibition result (with SK-N-MC [21]; in data set [22]; in the data set with SK-N-MC [23]) was “Active” in each case. Besides, the result in the data set on SK-N-MC [24] and in the data set with SK-N-MC [25] was Active.

Values taken from ChEMBL document CHEMBL5036349, “Development of potent dual PDK1/AurA kinase inhibitors for cancer therapy: Lead-optimization, structural insights, and ADME-Tox profile” (Eur J Med Chem, 2021).
